This note sets out measurements from patent US11208412B2 (DAEGU-GYEONGBUK MEDICAL INNOVATION FOUNDATION, priority 2017, dated 2021).

What all share (experiment): Kinase selectivity, DiscoverX scanMAX Kinase assay panel (% control)
What all share (assay type): binding

Assay [1] has as its target T1, kinases of the scanMAX Kinase assay panel (Homo sapiens, UniProt P11802).
T1 construct: purchased DiscoverX Co. (contract measurement) scanMAX Kinase assay panel
The note with it: 1 uM. An outline of the steps: (§1)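 Compounds were tested at 1 uM (in DMSO) against each panel kinase. % control was calculated as (compound − positive control)/(negative control − positive control)×100, where the positive control gives 0% and DMSO gives 100%. Activity toward a kinase was called at % control <35%.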

Assay [2] deals with T2, kinases of the scanMAX Kinase assay panel (Homo sapiens, UniProt P21127).
T2 construct: purchased DiscoverX Co. (contract measurement) scanMAX Kinase assay panel
T2 sequence (P21127 whole entry): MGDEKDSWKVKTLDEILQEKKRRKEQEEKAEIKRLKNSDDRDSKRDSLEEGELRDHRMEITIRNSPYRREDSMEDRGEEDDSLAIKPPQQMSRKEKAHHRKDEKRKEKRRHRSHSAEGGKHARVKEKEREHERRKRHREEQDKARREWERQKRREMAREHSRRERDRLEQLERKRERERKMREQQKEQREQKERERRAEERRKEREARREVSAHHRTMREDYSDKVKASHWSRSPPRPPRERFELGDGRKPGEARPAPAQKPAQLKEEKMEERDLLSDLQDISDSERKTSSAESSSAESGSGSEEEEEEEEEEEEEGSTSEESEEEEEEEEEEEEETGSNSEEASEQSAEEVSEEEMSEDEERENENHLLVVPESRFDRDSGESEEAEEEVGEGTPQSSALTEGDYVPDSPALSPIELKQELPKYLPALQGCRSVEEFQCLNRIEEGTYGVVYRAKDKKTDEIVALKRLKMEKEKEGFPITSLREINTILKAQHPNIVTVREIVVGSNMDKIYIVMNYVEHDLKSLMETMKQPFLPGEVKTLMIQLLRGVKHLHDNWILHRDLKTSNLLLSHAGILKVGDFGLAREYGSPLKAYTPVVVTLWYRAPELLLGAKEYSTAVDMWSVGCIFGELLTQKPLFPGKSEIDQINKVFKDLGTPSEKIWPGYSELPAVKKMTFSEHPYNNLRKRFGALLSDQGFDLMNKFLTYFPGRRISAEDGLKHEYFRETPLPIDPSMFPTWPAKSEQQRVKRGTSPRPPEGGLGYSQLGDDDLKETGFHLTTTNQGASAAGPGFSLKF
Conditions: CDC2L1; 1 uM. Summed up:
as §1

For assay [3], the target named is T3, kinases of the scanMAX Kinase assay panel (Homo sapiens, UniProt P36888, N841I).
T3 construct: purchased DiscoverX Co. (contract measurement) scanMAX Kinase assay panel
T3 sequence (P36888 27-993 N841I): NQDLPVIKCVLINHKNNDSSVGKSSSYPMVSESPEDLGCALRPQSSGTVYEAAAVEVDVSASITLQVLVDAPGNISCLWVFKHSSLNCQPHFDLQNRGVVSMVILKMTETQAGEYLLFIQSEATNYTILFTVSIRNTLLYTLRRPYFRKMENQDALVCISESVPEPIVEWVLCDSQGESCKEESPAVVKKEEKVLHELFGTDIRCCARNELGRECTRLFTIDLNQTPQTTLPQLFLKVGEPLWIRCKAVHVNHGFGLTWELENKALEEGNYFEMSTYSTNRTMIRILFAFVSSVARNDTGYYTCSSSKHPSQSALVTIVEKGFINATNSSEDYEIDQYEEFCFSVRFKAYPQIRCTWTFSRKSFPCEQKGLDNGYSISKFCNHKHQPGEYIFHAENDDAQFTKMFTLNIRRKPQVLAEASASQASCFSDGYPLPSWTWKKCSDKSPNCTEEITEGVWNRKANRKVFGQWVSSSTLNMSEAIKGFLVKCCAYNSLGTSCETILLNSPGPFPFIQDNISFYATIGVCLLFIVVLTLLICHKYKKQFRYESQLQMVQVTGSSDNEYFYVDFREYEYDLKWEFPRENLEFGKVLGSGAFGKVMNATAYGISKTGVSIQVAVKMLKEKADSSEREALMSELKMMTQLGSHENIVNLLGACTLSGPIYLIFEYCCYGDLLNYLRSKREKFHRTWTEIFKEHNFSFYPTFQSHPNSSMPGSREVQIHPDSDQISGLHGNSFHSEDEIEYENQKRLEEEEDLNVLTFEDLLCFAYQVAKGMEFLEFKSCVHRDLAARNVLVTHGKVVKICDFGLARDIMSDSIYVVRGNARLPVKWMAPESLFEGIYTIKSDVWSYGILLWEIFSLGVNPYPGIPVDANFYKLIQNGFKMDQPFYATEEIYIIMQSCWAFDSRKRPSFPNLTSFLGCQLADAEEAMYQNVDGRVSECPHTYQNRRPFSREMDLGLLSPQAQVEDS
Conditions: FLT3(N841I); 1 uM. An outline of the steps:
as §1

Assay [4] concerns the target T4, kinases of the scanMAX Kinase assay panel (Homo sapiens, UniProt P54753).
T4 construct: purchased DiscoverX Co. (contract measurement) scanMAX Kinase assay panel
T4 sequence (P54753 34-998): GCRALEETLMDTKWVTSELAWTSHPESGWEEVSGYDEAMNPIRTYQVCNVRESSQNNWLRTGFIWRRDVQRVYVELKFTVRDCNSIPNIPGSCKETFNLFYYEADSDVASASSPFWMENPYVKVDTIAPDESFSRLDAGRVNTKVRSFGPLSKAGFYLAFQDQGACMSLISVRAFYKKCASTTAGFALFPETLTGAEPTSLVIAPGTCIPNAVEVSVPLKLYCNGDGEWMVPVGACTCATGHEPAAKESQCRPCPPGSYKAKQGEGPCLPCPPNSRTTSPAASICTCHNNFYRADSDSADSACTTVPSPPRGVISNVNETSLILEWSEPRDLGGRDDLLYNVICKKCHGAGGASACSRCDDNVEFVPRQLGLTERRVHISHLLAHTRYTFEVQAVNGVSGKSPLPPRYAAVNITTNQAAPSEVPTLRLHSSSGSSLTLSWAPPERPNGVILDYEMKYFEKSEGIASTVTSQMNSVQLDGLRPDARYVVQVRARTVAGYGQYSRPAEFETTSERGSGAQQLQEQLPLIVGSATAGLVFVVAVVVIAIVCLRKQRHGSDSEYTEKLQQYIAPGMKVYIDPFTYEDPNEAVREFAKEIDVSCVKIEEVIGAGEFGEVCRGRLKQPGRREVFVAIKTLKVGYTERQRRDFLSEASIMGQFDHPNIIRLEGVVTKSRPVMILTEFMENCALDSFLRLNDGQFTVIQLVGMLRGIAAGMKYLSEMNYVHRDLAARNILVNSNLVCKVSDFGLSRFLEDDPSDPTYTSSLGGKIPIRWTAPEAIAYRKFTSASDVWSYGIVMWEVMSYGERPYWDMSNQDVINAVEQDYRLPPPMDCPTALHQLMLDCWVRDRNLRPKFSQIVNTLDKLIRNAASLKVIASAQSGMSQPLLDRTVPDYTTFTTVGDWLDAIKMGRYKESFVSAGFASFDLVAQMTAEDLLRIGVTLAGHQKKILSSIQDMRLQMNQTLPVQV
Conditions: EPHB3; 1 uM. An outline of the steps:
as §1

Assay [5] addresses T5, kinases of the scanMAX Kinase assay panel (Homo sapiens, UniProt Q15746).
T5 construct: purchased DiscoverX Co. (contract measurement) scanMAX Kinase assay panel
Conditions: MYLK; 1 uM. Summed up: as §1

Assay [6] deals with T6, kinases of the scanMAX Kinase assay panel (Homo sapiens, UniProt Q16512).
T6 construct: purchased DiscoverX Co. (contract measurement) scanMAX Kinase assay panel
T6 sequence (Q16512 whole entry): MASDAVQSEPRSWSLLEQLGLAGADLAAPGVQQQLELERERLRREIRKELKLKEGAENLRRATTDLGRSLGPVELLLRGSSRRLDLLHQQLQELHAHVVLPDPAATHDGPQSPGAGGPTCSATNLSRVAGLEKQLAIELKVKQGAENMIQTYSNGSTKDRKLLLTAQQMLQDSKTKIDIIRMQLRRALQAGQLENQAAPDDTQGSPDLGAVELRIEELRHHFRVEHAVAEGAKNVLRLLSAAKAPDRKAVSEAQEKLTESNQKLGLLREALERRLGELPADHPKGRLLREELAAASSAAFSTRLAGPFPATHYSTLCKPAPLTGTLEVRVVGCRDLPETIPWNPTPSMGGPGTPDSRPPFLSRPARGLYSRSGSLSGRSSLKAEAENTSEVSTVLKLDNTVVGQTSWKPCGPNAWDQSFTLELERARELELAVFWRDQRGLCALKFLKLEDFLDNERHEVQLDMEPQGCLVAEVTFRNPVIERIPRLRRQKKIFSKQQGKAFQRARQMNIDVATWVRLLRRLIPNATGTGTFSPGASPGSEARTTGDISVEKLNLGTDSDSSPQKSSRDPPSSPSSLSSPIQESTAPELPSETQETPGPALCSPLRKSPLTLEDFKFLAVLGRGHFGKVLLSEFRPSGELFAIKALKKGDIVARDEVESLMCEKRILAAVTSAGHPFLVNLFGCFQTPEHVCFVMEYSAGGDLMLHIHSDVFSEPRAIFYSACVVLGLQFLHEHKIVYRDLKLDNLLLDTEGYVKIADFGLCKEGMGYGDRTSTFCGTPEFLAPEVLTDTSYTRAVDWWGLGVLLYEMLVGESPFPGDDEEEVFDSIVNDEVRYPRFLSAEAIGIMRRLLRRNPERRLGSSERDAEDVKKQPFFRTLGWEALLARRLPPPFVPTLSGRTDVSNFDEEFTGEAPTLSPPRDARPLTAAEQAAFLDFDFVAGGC
Conditions: PKN1; 1 uM. Summed up: as §1

T1 sequence (P11802 whole entry): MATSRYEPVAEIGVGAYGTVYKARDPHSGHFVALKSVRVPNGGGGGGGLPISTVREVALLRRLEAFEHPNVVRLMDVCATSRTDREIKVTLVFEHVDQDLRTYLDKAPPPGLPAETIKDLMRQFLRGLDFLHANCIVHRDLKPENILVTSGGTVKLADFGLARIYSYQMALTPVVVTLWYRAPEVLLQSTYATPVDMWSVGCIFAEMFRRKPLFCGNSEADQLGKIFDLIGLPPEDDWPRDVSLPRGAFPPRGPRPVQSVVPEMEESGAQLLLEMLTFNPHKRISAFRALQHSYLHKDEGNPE
T5 sequence (Q15746 whole entry): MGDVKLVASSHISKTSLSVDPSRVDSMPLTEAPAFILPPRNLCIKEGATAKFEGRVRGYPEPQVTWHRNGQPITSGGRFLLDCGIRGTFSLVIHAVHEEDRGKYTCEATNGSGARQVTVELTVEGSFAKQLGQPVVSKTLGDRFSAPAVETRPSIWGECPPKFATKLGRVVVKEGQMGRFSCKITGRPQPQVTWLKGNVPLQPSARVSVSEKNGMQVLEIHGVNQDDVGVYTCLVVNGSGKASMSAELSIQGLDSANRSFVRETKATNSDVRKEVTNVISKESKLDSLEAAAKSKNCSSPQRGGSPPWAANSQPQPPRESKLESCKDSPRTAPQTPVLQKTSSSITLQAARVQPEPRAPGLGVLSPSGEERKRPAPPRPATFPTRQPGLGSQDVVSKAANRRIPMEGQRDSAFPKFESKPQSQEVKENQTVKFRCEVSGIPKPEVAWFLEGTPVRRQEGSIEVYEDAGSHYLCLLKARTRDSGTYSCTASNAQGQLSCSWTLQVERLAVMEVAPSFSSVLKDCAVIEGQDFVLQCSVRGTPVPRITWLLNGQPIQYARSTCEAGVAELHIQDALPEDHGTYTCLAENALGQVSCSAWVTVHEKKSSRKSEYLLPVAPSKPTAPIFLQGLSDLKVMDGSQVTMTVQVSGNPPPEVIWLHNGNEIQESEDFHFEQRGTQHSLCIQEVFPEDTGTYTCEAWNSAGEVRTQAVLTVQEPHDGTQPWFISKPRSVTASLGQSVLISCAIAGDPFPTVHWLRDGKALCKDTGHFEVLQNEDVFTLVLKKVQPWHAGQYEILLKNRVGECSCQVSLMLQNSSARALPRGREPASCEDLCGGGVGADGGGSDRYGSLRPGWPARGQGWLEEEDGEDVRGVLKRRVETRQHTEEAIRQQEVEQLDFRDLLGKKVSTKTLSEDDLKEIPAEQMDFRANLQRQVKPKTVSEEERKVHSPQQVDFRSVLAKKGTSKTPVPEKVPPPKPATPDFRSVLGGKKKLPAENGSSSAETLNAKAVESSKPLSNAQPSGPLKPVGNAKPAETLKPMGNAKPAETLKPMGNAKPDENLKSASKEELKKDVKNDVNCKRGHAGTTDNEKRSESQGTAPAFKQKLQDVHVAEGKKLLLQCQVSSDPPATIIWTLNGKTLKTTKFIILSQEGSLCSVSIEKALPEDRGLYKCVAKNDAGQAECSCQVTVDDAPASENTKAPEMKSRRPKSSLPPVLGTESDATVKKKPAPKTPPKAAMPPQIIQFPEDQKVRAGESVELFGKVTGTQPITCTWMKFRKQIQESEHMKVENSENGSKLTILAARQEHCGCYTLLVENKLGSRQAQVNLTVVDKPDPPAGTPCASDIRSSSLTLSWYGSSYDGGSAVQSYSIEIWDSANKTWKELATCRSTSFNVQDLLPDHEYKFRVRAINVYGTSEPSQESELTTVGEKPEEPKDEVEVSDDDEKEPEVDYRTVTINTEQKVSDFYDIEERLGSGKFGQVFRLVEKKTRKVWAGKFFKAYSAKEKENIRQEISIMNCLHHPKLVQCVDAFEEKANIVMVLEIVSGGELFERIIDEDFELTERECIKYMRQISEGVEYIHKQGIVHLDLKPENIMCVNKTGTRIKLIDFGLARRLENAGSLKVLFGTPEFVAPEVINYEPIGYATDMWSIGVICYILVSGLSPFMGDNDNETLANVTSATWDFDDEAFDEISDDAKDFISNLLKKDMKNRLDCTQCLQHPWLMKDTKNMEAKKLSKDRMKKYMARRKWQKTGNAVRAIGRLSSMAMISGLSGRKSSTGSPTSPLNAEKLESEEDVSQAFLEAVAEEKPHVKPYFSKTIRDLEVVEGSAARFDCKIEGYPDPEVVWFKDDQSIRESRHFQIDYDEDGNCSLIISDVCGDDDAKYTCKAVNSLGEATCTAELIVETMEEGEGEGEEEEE

For `CNc1nc(Nc2ccc(C(=O)N3CCOCC3)cc2OC)nc2[nH]cc(C#N)c12` [Example 1, 2-((2-methoxy-4-(morpholine-4-carbonyl)phenyl)amino)-4-(methylamino)-7H-pyrrolo[2,3-d]pyrimidine-5-carbonitrile], the remaining binding at 1 µM in assay [1] (CDK4-cyclinD1) amounted to 74%; in assay [1] (CDK4-cyclinD3), 96%; in assay [1] (CDK4), 61%; in assay [2] it was 100%; in assay [3], 90%; in assay [4] it was 93%. For the same compound, the remaining binding at 1 µM in assay [5] amounted to 0%; in assay [6], 100%.
As for `CC1(Nc2nc(Nc3cnn([C@H]4CCN(C5COC5)C[C@@H]4F)c3Cl)nc3[nH]cc(C#N)c23)CC1` [Example 52, 2-((5-chloro-1-((3S,4S)-3-fluoro-1-(oxetane-3-yl)piperidine-4-yl)-1H-pyrazole-4-yl)amino)((1-methylcyclopropyl)amino)-7H-pyrrolo[2,3-d]pyrimidine-5-carbonitrile], the remaining binding at 1 µM was 59% in assay [1] (CDK4-cyclinD1); 100% in assay [1] (CDK4-cyclinD3); 100% in assay [1] (CDK4); 84% in assay [2]; 0% in assay [3]; 95% in assay [4]. For the same compound, the figures for the remaining binding at 1 µM in assay [5] and in assay [6] were 0.55% and 67%, respectively.
In the case of `CCNc1nc(Nc2ccc(C(=O)N3CCC(N4CCOCC4)CC3)cc2OC)nc2[nH]cc(C(F)(F)F)c12` [Example 104, (4-((4-(ethylamino)-5-(trifluoromethyl)-7H-pyrrolo[2,3-d]pyrimidine-2-yl)amino)-3-methoxyphenyl)(4-morpholinopiperidine-1-yl)methanone], the remaining binding at 1 µM in assay [1] (CDK4-cyclinD1) worked out at 55%; in assay [1] (CDK4-cyclinD3), 53%; in assay [1] (CDK4), 100%; in assay [2], 99%; in assay [3] it was 51%; in assay [4], 100%. Moreover, the remaining binding at 1 µM stood at 0.95% in assay [5] and 95% in assay [6].
